US20080247979A1, “Use of a Hydrophobic Zeolite, that Contains and Gives a Slow Release of an Active Element, for Treatment of Skin” (priority 2005, published 2008)

Experiment: free release of ethanol from loaded hydrophobic zeolite over time, with parallel evaporation of non-adsorbed ethanol
Type: physicochemical
Details: one gram ethanol not adsorbed to any hydrophobic zeolite, reduced to 0,5 grams
Description: After 12 hours, at 29 degrees C., hydrophobic zeolite Y powder has dropped approximately 70% of its ethanol.
Hydrophobic zeolite Y was loaded with 16 weight per cent ethanol and its free release of ethanol over the time at a surrounding temperature off 29 degrees C. was studied. The result appears in FIG. 1. Which also appears from FIG. 1, the hydrophobic zeolite had, after approximately 5 hours, given the half amount of its ethanol, and was still active.
In a parallel experiment evaporation of 95% ethanol, not adsorbed to any hydrophobic zeolite, was measured. One gram of this ethanol had after 8 minutes been reduced through evaporation to 0,5 grams, i e to half the amount. This is a drastic difference compared with ethanol which is adsorbed to hydrophobic zeolite. If the experiment had been executed with 99.5% ethanol instead of 95% it would presumably have been even smaller. Through the hydrophobic zeolite composition the skin is exposed to ethanol vapour during 50 times's longer time as in a normal sponging.
The mentioned hydrophobic zeolite loaded with ethanol gives a vapour that is near 100% ethanol in composition. The ethanol vapour can aggressively attack skin bacteria's in their hydrophobic environment during relatively long time.

For `CCO` [95% ethanol, ethanol], the “time until reduced through evaporation to half the amount” value was 8 min.
